Experimental findings from US20020147187A1, “1,2-diphenyl-1-naphthyl ethene derivatives, analogs and use thereof” (priority 2001, published 2002) are described below.

The target in assay [1] is T1, human recombinant estrogen receptor alpha (Homo sapiens, UniProt P03372).
T1 sequence (P03372 1-595): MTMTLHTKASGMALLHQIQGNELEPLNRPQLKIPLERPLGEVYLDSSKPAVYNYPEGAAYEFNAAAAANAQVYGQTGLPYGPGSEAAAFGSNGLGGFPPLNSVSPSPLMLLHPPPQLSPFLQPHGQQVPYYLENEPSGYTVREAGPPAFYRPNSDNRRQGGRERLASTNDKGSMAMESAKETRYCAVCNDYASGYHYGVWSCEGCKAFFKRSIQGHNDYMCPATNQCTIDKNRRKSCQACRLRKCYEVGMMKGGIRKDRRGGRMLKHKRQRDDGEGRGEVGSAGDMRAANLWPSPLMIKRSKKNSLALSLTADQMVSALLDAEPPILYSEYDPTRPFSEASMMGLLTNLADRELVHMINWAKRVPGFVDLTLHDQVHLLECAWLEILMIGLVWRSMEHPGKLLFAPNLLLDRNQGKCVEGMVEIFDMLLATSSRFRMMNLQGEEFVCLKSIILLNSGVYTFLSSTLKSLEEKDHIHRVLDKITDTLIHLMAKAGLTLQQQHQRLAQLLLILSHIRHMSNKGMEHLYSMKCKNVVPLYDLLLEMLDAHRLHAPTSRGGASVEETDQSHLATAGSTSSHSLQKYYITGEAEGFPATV
Nature of the assay: Estrogen receptor alpha binding assay ([3H] Estradiol displacement). The note with it: IC50 Value, Estrogen Receptor Subtype Alpha, displacement of 0.5 nM [3H] Estradiol, 4.5 ng receptor protein, 2 hours at 25° C.
Protocol: The stable expression of these individual receptor subtypes in cells provides a rapid and accurate means of quantifying the direct interaction of a test article with the estrogen binding sites. Briefly, this assay is conducted in 96 well plates where a series of concentrations of the test article are used to displace tritiated estradiol from either estrogen receptor alpha or estrogen receptor beta bearing cell membranes, under equilibrium conditions. […] This measurement is the primary test for mediation of the estrogen receptor and can also be used to measure the relative selectivity of the test article for either the alpha or beta subtype.
The alpha subtype assay measures the binding of [^3H] Estradiol to the human recombinant estrogen receptor. […] Membranes are filtered and washed 3 times, and the filters are counted to determine [^3H] Estradiol specifically bound. […] The measurement of the displaced tritiated estradiol allows the determination of an IC50 value, a direct measure of the test articles' interaction with the estrogen receptor alpha.

Assay [2] has as its target human recombinant estrogen receptor beta (Homo sapiens, UniProt Q92731). Nature of the assay: Estrogen receptor beta binding assay ([3H] Estradiol displacement). The note with it: displacement of 0.5 nM [3H] Estradiol, 7.5 ng receptor protein, 2 hours at 25° C.; read-out: IC50 Value, Estrogen Receptor Subtype Beta.
The next assay concerns MCF-7 cells. Nature of the assay: MCF-7 cell proliferation assay (estradiol stimulated versus unstimulated, MTT). Format: cell-based, human. The note with it: estradiol stimulated versus unstimulated MCF-7 cells, FIG. 1. How it is done: Those skilled in the art will appreciate that several acceptable estrogen receptor-binding assays are known and available for initial screening of the compounds of the present invention. The initial screen chosen for detecting anti-estrogenic/estrogenic activity was a human cell line assay, namely the MCF-7 cell proliferation assay. MCF-7 cells are estrogen-receptor positive (ER+) cancer cells that respond to estradiol stimulation. Anti-estrogenic activity is measured in terms of a test article's ability to inhibit estradiol stimulated proliferation, implying an antagonistic action on the estrogen receptor and estrogenic activity can be inferred from increased proliferation. The following testing procedure was used.
MCF-7 cells were maintained in a RPMI medium, free of phenol red, and supplemented with 5% charcoal-stripped foetal calf serum, hydrocortisone, bovine insulin, penicillin and streptomycin until they reached 70% confluence. […] Cell survival was evaluated after 3-6 days, by replacing the culture media with 150 μl of fresh medium containing 10 mM 4-(2-hydroxyethyl)-1-piperazineethamsulfonic acid buffer (pH 7.4) followed by the addition of 50 μl of 2.5 mg/ml of 3-(4,5-dimethylthiazo-2-yl)-2,5-diphenyltetrazolium bromide (MTT). […] Plates were shaken for 15 minutes and the absorbance was determined at 570 nm with a microplate reader (BIORAD, model 450). […]

human recombinant estrogen receptor beta, sequence (Q92731 whole entry): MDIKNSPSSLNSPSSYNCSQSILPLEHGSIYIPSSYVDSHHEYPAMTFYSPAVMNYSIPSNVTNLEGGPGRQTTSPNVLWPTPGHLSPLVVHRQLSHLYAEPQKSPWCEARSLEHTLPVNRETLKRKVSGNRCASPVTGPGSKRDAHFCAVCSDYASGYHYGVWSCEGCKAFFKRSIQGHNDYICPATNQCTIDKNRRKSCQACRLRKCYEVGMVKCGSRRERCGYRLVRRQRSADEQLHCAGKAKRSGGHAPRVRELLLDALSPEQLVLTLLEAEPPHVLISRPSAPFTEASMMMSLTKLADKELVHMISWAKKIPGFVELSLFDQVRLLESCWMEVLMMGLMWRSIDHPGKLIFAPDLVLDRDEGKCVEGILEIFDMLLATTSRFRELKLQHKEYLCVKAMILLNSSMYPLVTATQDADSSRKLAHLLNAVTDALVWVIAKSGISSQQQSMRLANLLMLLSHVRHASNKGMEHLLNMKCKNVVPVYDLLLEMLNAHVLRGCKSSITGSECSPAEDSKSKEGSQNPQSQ

For `C/C(=C(/c1ccc(O)cc1)c1cccc2cc(O)ccc12)c1ccc(OCCN2CCCC2)cc1` [Formula II, (E)-5-[1-(4-hydroxyphenyl)-2-[4-(2-pyrrolidin-1-yl-ethoxy)-phenyl]-propenyl]-naphthalen-2-ol], the IC50 in assay [1] is 5.54 nM; in assay [2], 75 nM. Also, the “effect on estradiol stimulated proliferation of MCF-7 cells (shift in dose-response curve)” value in the assay on MCF-7 cells is recorded as “antagonizing the effect of estradiol”.

What is called IC50 is the concentration needed to halve the response being measured.
